Data published in US11673883B2, “Heterocyclic compounds as immunomodulators” (Incyte Corporation, priority 2016, dated 2023).

Biological target: PD-1/PD-L1 protein/protein interaction (Homo sapiens (Human), UniProt Q9NZQ7)
Assay: PD-1/PD-L1 Homogeneous Time-Resolved Fluorescence (HTRF) Binding Assay
Conditions: recombinant human PD-L1 (19-238) His-tag, human PD-1 (25-167) Fc tag; 25° C., PBS pH 7.4
Protocol: Example A. PD-1/PD-L1 Homogeneous Time-Resolved Fluorescence (HTRF) Binding Assay
The assays were conducted in a standard black 384-well polystyrene plate with a final volume of 20 μL. Inhibitors were first serially diluted in DMSO and then added to the plate wells before the addition of other reaction components. The final concentration of DMSO in the assay was 1%. The assays were carried out at 25° C. in the PBS buffer (pH 7.4) with 0.05% Tween-20 and 0.1% BSA. Recombinant human PD-L1 protein (19-238) with a His-tag at the C-terminus was purchased from AcroBiosystems (PD1-H5229). Recombinant human PD-1 protein (25-167) with Fc tag at the C-terminus was also purchased from AcroBiosystems (PD1-H5257). PD-L1 and PD-1 proteins were diluted in the assay buffer and […] was added to the plate well. Plates were centrifuged and proteins were preincubated with inhibitors for 40 minutes. The incubation was followed by the addition of 10 μL of HTRF detection buffer supplemented with Europium cryptate-labeled anti-human IgG (PerkinElmer-AD0212) specific for Fc and anti-His antibody conjugated to SureLight®-Allophycocyanin (APC, PerkinElmer-AD0059H). After centrifugation, the plate was incubated at 25° C. for 60 min. before reading on a PHERAstar FS plate reader (665 nm/620 nm ratio). Final concentrations in the assay were […], 10 nM PD-L1, 1 nM europium anti-human IgG and 20 nM anti-His-Allophycocyanin. IC50 determination was performed by fitting the curve of percent control activity versus the log of the inhibitor concentration using the GraphPad Prism 5.0 software.

Sequence of PD-1/PD-L1 protein/protein interaction (Q9NZQ7 19-238): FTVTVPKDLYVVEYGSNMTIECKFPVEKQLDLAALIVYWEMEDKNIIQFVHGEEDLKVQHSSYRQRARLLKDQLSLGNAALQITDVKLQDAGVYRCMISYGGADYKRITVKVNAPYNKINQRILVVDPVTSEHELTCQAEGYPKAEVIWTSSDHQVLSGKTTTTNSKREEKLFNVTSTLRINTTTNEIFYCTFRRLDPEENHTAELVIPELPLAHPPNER

SMILES | IC50 [µM]
Cc1c(-c2ccccc2)cccc1N1CCC(NC2CCc3c(c(C(=O)O)nn3C)C2)CC1 (racemic) [Example 38, 1-methyl-5-(1-(2-methylbiphenyl-3-yl)piperidin-4-ylamino)-4,5,6,7-tetrahydro-1H-indazole-3-carboxylic acid] | ≤ 0.1
Cc1c(-c2ccccc2)cccc1N1CCC(NC2CCOC2)CC1 (racemic) [Example 42, 1-(2-methylbiphenyl-3-yl)-N-(tetrahydrofuran-3-yl)piperidin-4-amine] | ≤ 0.1
COCC(C)NC1CCN(c2cccc(-c3ccccc3)c2C)CC1 (racemic) [Example 44, N-(1-methoxypropan-2-yl)-1-(2-methylbiphenyl-3-yl)piperidin-4-amine] | ≤ 0.1
C[C@@H]1CN(C2CCN(c3cccc(-c4ccc5c(c4)OCCO5)c3C#N)CC2)C[C@H]1CO (relative stereo) [Example 9, 2-(2,3-dihydrobenzo[b][1,4]dioxin-6-yl)-6-(4-(trans-3-(hydroxymethyl)-4-methylpyrrolidin-1-yl)piperidin-1-yl)benzonitrile] | ≤ 0.1
N#Cc1c(-c2ccc3c(c2)OCCO3)cccc1N1CCC(N[C@@H]2CCCC[C@H]2CO)CC1 (relative stereo) [Example 12, 2-(2,3-dihydrobenzo[b][1,4]dioxin-6-yl)-6-(4-(trans-2-(hydroxymethyl)cyclohexylamino)piperidin-1-yl)benzonitrile] | ≤ 0.1
N#Cc1c(-c2ccc3c(c2)OCCO3)cccc1N1CCC(NC[C@@H]2CCCC[C@@H]2O)CC1 (relative stereo) [Example 19, 2-(2,3-dihydro-1,4-benzodioxin-6-yl)-6-[4-({[cis-2-hydroxycyclohexyl]methyl}amino)piperidin-1-yl]benzonitrile] | ≤ 0.1
Cc1c(-c2ccccc2)cccc1N1CCC(N[C@H]2CCC[C@H]2CO)CC1 (relative stereo) [Example 34, (cis-2-(1-(2-methylbiphenyl-3-yl)piperidin-4-ylamino)cyclopentyl) methanol] | ≤ 0.1
Cc1c(-c2ccccc2)cccc1N1CCC(NC2CCC(C#N)CC2)CC1 (single isomer, unassigned) [40 (peak 1), 4-(1-(2-methylbiphenyl-3-yl)piperidin-4-ylamino)cyclohexane-carbonitrile] | ≤ 0.1
Cc1c(-c2ccccc2)cccc1N1CCC(NC2CCC(C#N)CC2)CC1 (single isomer, unassigned) [40 (peak 2), 4-(1-(2-methylbiphenyl-3-yl)piperidin-4-ylamino)cyclohexane carbonitrile] | ≤ 0.1
Cc1c(-c2ccccc2)cccc1N1CCC(NC2CCC(C(=O)O)CC2)CC1 (single isomer, unassigned) [41 (peak 1), 4-(1-(2-methylbiphenyl-3-yl)piperidin-4-ylamino)cyclohexane-carboxylic acid] | ≤ 0.1
Cc1c(-c2ccccc2)cccc1N1CCC(NC2CCC(C(=O)O)CC2)CC1 (single isomer, unassigned) [41 (peak 2), 4-(1-(2-methylbiphenyl-3-yl)piperidin-4-ylamino)cyclohexane-carboxylic acid] | ≤ 0.1
Cc1c(-c2ccccc2)cccc1N1CCC(NC2CCCC(C(=O)O)C2)CC1 (single isomer, unassigned) [46 (peak 1), 3-(1-(2-methylbiphenyl-3-yl)piperidin-4-ylamino)cyclohexane carboxylic acid] | ≤ 0.1
Cc1c(-c2ccccc2)cccc1N1CCC(NC2CCCC(C(=O)O)C2)CC1 (single isomer, unassigned) [46 (peak 2), 3-(1-(2-methylbiphenyl-3-yl)piperidin-4-ylamino)cyclohexane carboxylic acid] | ≤ 0.1
Cc1c(-c2ccccc2)cccc1N1CCC(NC2CCC(C(=O)O)(c3ccc(Cl)cc3)CC2)CC1 (single isomer, unassigned) [47 (peak 1), 1-(4-chlorophenyl)-4-(1-(2-methylbiphenyl-3-yl)piperidin-4-ylamino)cyclohexane carboxylic acid] | ≤ 0.1
Cc1c(-c2ccccc2)cccc1N1CCC(NC2CCC(C(=O)O)(c3ccc(Cl)cc3)CC2)CC1 (single isomer, unassigned) [47 (peak 2), 1-(4-chlorophenyl)-4-(1-(2-methylbiphenyl-3-yl)piperidin-4-ylamino)cyclohexane-carboxylic acid] | ≤ 0.1
N#Cc1c(-c2ccc3c(c2)OCCO3)cccc1N1CCC(N[C@H]2C[C@@H](O)C2)CC1 [Example 1, 2-(2,3-dihydro-1,4-benzodioxin-6-yl)-6-{4-[(cis-3-hydroxycyclobutyl)amino]piperidin-1-yl}benzonitrile] | ≤ 0.1

SMILES | IC50 [µM]
N#Cc1c(-c2ccc3c(c2)OCCO3)cccc1N1CCC(NC2CC2)CC1 [Example 2, 2-(4-(cyclopropylamino)piperidin-1-yl)-6-(2,3-dihydrobenzo[b][1,4]dioxin-6-yl)benzonitrile] | ≤ 0.1
CN(C)C1CCN(c2cccc(-c3ccc4c(c3)OCCO4)c2C#N)CC1 [Example 3, 2-(2,3-dihydrobenzo[b][1,4]dioxin-6-yl)-6-(4-(dimethylamino)piperidin-1-yl)benzonitrile] | 0.1 to 0.5
N#Cc1c(-c2ccc3c(c2)OCCO3)cccc1N1CCC(NCC2(CO)CC2)CC1 [Example 4, 2-(2,3-dihydrobenzo[b][1,4]dioxin-6-yl)-6-(4-((l-(hydroxymethyl)cyclopropyl)methylamino)piperidin-1-yl)benzonitrile] | ≤ 0.1
Cn1cc(CCNC2CCN(c3cccc(-c4ccc5c(c4)OCCO5)c3C#N)CC2)cn1 [Example 5, 2-(2,3-dihydrobenzo[b][1,4]dioxin-6-yl)-6-(4-(2-(1-methyl-1H-pyrazol-4-yl)ethylamino)piperidin-1-yl)benzonitrile] | ≤ 0.1
CC(C)(CO)CNC1CCN(c2cccc(-c3ccc4c(c3)OCCO4)c2C#N)CC1 [Example 6, 2-(2,3-dihydrobenzo[b][1,4]dioxin-6-yl)-6-(4-(3-hydroxy-2,2-dimethylpropylamino)piperidin-1-yl)benzonitrile] | ≤ 0.1
N#Cc1c(-c2ccc3c(c2)OCCO3)cccc1N1CCC(NC2CCOCC2)CC1 [Example 7, 2-(2,3-dihydrobenzo[b][1,4]dioxin-6-yl)-6-(4-(tetrahydro-2H-pyran-4-ylamino)piperidin-1-yl)benzonitrile] | ≤ 0.1
N#Cc1c(-c2ccc3c(c2)OCCO3)cccc1N1CCC(N[C@H]2C[C@@H](CO)C2)CC1 [Example 8, 2-(2,3-dihydrobenzo[b][1,4]dioxin-6-yl)-6-(4-(cis-3-(hydroxymethyl)cyclobutyl-amino)piperidin-l-yl)benzonitrile] | ≤ 0.1
N#Cc1c(-c2ccc3c(c2)OCCO3)cccc1N1CCC(NC2CC3(CCC3)C2)CC1 [Example 10, 2-(2,3-dihydrobenzo[b][1,4]dioxin-6-yl)-6-(4-(spiro[3.3]heptan-2-ylamino)piperidin-l-yl)benzonitrile] | ≤ 0.1
COc1ccc(C2(CNC3CCN(c4cccc(-c5ccc6c(c5)OCCO6)c4C#N)CC3)CCOCC2)cc1 [Example 11, 2-(2,3-dihydrobenzo[b][1,4]dioxin-6-yl)-6-(4-((4-(4-methoxyphenyl)tetrahydro-2H-pyran-4-yl)methylamino)piperidin-1-yl)benzonitrile] | ≤ 0.1
CO[C@H]1C[C@H](NC2CCN(c3cccc(-c4ccc5c(c4)OCCO5)c3C#N)CC2)C1 [Example 13, 2-(2,3-dihydrobenzo[b][1,4]dioxin-6-yl)-6-(4-(trans-3-methoxycyclobutylamino)piperidin-1-yl)benzonitrile] | ≤ 0.1
CO[C@H]1C[C@@H](NC2CCN(c3cccc(-c4ccc5c(c4)OCCO5)c3C#N)CC2)C1 [Example 14, 2-(2,3-dihydrobenzo[b][1,4]dioxin-6-yl)-6-(4-(cis-3-methoxycyclobutylamino)piperidin-1-yl)benzonitrile] | ≤ 0.1
N#Cc1c(-c2ccc3c(c2)OCCO3)cccc1N1CCC(N2CCC(CCO)C2)CC1 (centres unmarked) [Example 15, 2-(2,3-dihydrobenzo[b][1,4]dioxin-6-yl)-6-(4-(3-(2-hydroxyethyl)pyrrolidin-1-yl)piperidin-1-yl)benzonitrile] | ≤ 0.1
N#Cc1c(-c2ccc3c(c2)OCCO3)cccc1N1CCC(NC2CCCOC2)CC1 (centres unmarked) [Example 16, 2-(2,3-dihydrobenzo[b][1,4]dioxin-6-yl)-6-(4-(tetrahydro-2H-pyran-3-ylamino)piperidin-1-yl)benzonitrile] | ≤ 0.1
N#Cc1c(-c2ccc3c(c2)OCCO3)cccc1N1CCC(NC2CCCC2CO)CC1 (stereo not drawn) [Example 17, 2-(2,3-dihydrobenzo[b][1,4]dioxin-6-yl)-6-(4-(cis-2-(hydroxymethyl)cyclopentylamino)piperidin-l-yl)benzonitrile] | ≤ 0.1
N#Cc1c(-c2ccc3c(c2)OCCO3)cccc1N1CCC(N[C@H]2C[C@H](O)C2)CC1 [Example 18, 2-(2,3-dihydrobenzo[b][1,4]dioxin-6-yl)-6-(4-(trans-3-hydroxycyclobutylamino)piperidin-1-yl)benzonitrile] | ≤ 0.1
N#Cc1c(-c2ccc3c(c2)OCCO3)cccc1N1CCC(NC2CCCCC2)CC1 [Example 20, 2-(4-(cyclohexylamino)piperidin-1-yl)-6-(2,3-dihydrobenzo[b][1,4]dioxin-6-yl)benzonitrile] | ≤ 0.1
